How the values were obtained:
sarcomatous growth = experiment: Test for inhibition of sarcomatous growth (Rat cotton pellet method); type: in vivo; details: dose 100 mg/kg, 7 rats
Text: 1. Test for inhibition of sarcomatous growth
(Rat cotton pellet method)*
*Meier, R., Schuler, W. and Desaulees, P. : Experienta, 6, (1950)

vascular diffusion = experiment: Test for inhibition of the acceleration of vascular diffusion (inhibition of cutaneous chromoleaching of rat); type: in vivo; details: for Inhibition rate (%) / Mean blueing area (mm^2 ± S.E.): rat; for Mean blueing area (mm^2 ± S.E.): none: 200 ± 8.0
Text: 3. Test for inhibition of the acceleration of vascular diffusion
(Test for inhibition of cutaneous chromoleaching of rat)**
**Juduh, J. D. and Willoughby, D.A.; J. Path. Buct., 83, 567 (1962)

Acute toxicity, LD50 = type: in vivo; details: mouse, in vivo, mouse male, 5 weeks
Text: (§1) |LD50 (mouse male, 5 weeks)

[1] = Antiinflammatory effect (overall statement); details: in vivo
mouse = experiment: Acute toxicity, LD50; type: in vivo; details: mouse male, 5 weeks; intraperitoneal
Text: as §1

Row | Compound | Inhibition rate (%) (sarcomatous growth) | Inhibition rate (%) (vascular diffusion; 50 mg/kg P.C.) | Mean blueing area (mm^2 ± S.E.) (vascular diffusion; 50 mg/kg P.C.) | Inhibition rate (%) (vascular diffusion; 100 mg/kg P.C.) | Mean blueing area (mm^2 ± S.E.) (vascular diffusion; 100 mg/kg P.C.) | LD50 (Acute toxicity, LD50; ip, intraperitoneal) | LD50 (Acute toxicity, LD50; po) | antiinflammatory effect (in words) [1] | LD50 (mouse) | acceleration of vascular diffusion (in words) (vascular diffusion; 100 mg/kg)
1 | CC(C)CCC[C@@H](C)[C@H]1CC[C@H]2[C@@H]3CC[C@H]4C[C@@H](O)CC[C@]4(C)[C@H]3CC[C@]12C [C, cholestanol] | 4.5% | 4.5% | 191 ± 5 mm^2 | 6% | 188 ± 3 mm^2 | – | – | – | – | –
2 | CC(C)CCC[C@@H](C)[C@H]1CC[C@H]2[C@@H]3CC[C@H]4C[C@H](O)CC[C@]4(C)[C@H]3CC[C@]12C [EC, epicholestanol] | 6.9% | 4.5% | 191 ± 9 mm^2 | 10% | 180 ± 4 mm^2 | – | – | – | – | –
3 | CC(C)CCC[C@@H](C)[C@H]1CC[C@H]2[C@@H]3CC[C@H]4C[C@@H](OP(=O)(O)O)CC[C@]4(C)[C@H]3CC[C@]12C [K2 --PEC, dipotassium cholestanyl phosphate] | 10.0% | – | – | – | – | – | – | – | – | –
4 | CC(C)CCC[C@@H](C)[C@H]1CC[C@H]2[C@@H]3CC[C@H]4C[C@H](OP(=O)(O)O)CC[C@]4(C)[C@H]3CC[C@]12C [dipotassium epicholestanyl phosphate] | 21.5% | 18% | 164 ± 4 mm^2 | 21% | 158 ± 6 mm^2 | 1580 mg/kg | 9300 mg/kg | remarkably effective as an antiinflammatory agent | – | –
5 | CC(C)CCC[C@@H](C)[C@H]1CC[C@H]2[C@@H]3CC[C@H]4C[C@H](OP(=O)(O)O)CC[C@]4(C)[C@H]3CC[C@]12C [epicholestanyl phosphate] | – | – | – | – | – | – | – | – | 1850 mg/kg | inhibited

Source: patent US3974188A, “Process for producing cholestane type steroids” (The Lion Dentifrice Co., Ltd., priority 1974, dated 1976)
